Measurements reported in US9486461B2, “Methods and compositions for inducing apoptosis by stimulating ER stress” (UNIVERSITY OF SOUTHERN CALIFORNIA, priority 2007, dated 2016).

How the values were obtained:
[1] = test system: U87MG glioblastoma cell line; assay: MTT assay, U87MG; assay type: cell-based; settings: Homo sapiens, U-87 MG, 48 h, read-out: IC50 (50% inhibition of cell growth)
Procedure: (§1) For comparison purposes to the known anti-multiple myeloma effects of bortezomib, the RPMI/8226 multiple myeloma cell line was included in (A).
(§2) 3-(4,5-Dimethylthiazol-2-yl)-2,5-diphenyltetrazolium bromide (MTT) assays were performed in 96-well plates with the use of 3.0×10^3 to 8.0×10^3 cells per well as described in detail elsewhere (19).

LN229 cells = assay: Colony formation assay, LN229; assay type: cell-based, human; settings: LN229: 5 nM BZM, 60 μM CXB, 40 μM DMC, alone or combined; 48 hours, colonies two weeks thereafter
Procedure: Representative sections are shown. (B) Quantitative analysis of combination drug effects. […] Cell viability was determined by trypan blue exclusion assay.
The different small interfering RNAs (siRNA) were synthesized at the microchemical core laboratory of the University of Southern California/Norris Comprehensive Cancer Center; their sequences are described in ref. 32. Transfections of cells with these siRNAs and subsequent analysis of cell survival by colony formation assay have been described in detail elsewhere (32).

[2] = test system: T98G glioblastoma cell line; assay: MTT assay, T98G; assay type: cell-based; settings: Homo sapiens, 48 h, read-out: IC50 (50% inhibition of cell growth)
Procedure: as §1, §2

[3] = test system: RPMI/8226 multiple myeloma cell line; assay: MTT assay, RPMI/8226; assay type: cell-based; settings: RPMI/8226, 48 h, not more sensitive than the glioblastoma cell lines
Procedure: as §1, §2

[4] = test system: LN229 glioblastoma cell line; assay: MTT assay, LN229; assay type: cell-based, human; settings: Homo sapiens, LN-229, LN229, 48 h, read-out: IC50 (50% inhibition of cell growth)
Procedure: as §1, §2

[5] = test system: polyubiquitinated proteins in U251 cells; assay: Western blot of polyubiquitinated proteins, U251; assay type: cell-based, human; settings: U251, increasing concentrations, 24 hours
Procedure: Total cell lysates were analyzed by Western blot with specific antibodies to ubiquitin, GRP78, CHOP, and caspase 4. Actin was used as a loading control. […] Note that in the caspase 4 blots several non-specific background bands were observed (consistent with similar observations in the literature); the specific bands were identified with the use of various controls (not shown) and comparison to the literature.
(§3) Total cell lysates were prepared and analyzed by Western blot analysis as described earlier (19). Immunohistochemical analysis of protein expression in tumor tissues was performed with the use of the Vectastain avidin-biotin complex method kit (Vector Laboratories) as described previously (32). The primary antibodies were purchased from Cell Signaling Technology or Santa Cruz Biotechnology, Inc. and used according to the manufacturers' recommendations. All immunoblots and stainings were repeated at least once to confirm the results.

[6] = test system: CHOP protein in U87 glioblastoma tumor tissue; assay: Immunohistochemical staining for CHOP in xenograft tumor tissue; assay type: in vivo, nude mice; settings: U87MG xenograft, 1 mg/kg BZM and 7.5 mg/kg DMC individually or in combination, 50 h
Excerpt: In all cases, representative sections are shown.
Immunohistochemical analysis of protein expression in tumor tissues was done with the use of the Vectastain avidin-biotin complex method kit (Vector Laboratories, Burlingame, Calif.) according to the manufacturer's instructions. This procedure uses biotinylated secondary antibodies and a preformed avidin: biotinylated enzyme complex that has been termed the avidin-biotin complex method technique. As the primary antibody, we used anti-CHOP antibody (Santa Cruz Biotechnology) diluted 1:100 in 2% normal goat blocking serum.

U87 glioblastoma tumors = assay: TUNEL assay of xenograft tumor tissue; settings: U87MG xenograft, 1 mg/kg BZM and 7.5 mg/kg DMC individually or in combination, 50 h
U251 glioblastoma cells = assay: MTT assay, U251; assay type: cell-based, human; settings: Homo sapiens, U-251; U251, 48 h, MTT; read-out: IC50 (50% inhibition of cell growth)
Procedure: U251 glioblastoma cells were treated with different drugs, and various parameters of cell growth and cell death were comparatively analyzed. As controls, cells remained either non-treated (Co) or were treated with the solvent DMSO alone. (FIG. 8A) Cells were treated with 30 or 50 μM DMC for 48 hours and the effects on cell growth/survival and on cell death were determined by various assays. […] Below the three panels, the expression levels of the ER stress indicators CHOP, GRP78, and caspase 4 at the end of the 48 hour drug treatment is shown, as determined by Western blot analysis with specific antibodies (actin served as a loading control. (FIG. 8B) Cells were treated with various concentrations of different drugs for 48 hours, as indicated, and cell death was measured with the cell death ELISA kit. (FIG. 8C) Cells were treated with DMC or various coxibs and traditional NSAIDs for 48 hours, as indicated, and cell growth and survival was determined with the conventional MTT assay (control, non-treated cells were set at 100%). MTT assays were performed in 96-well plates with the use of 3.0-8.0×10^3 cells per well as described in detail elsewhere (34). In parallel, the expression levels of CHOP and GRP78 protein were determined by Western blot analysis. […]
as §2

[7] = test system: CHOP, GRP78, caspase 4 in U251 glioblastoma cells; assay: Western blot of ER stress indicators in U251 cells; assay type: cell-based, human; settings: U251, increasing concentrations, 24 hours
Procedure: U251 glioblastoma cells were cultured in the presence of 1 μM thapsigargin (Tg) or 60 μM DMC for various times, as indicated. Total cell lysates were prepared and analyzed by Western blot with specific antibodies to the ER stress proteins GRP78, CHOP, and caspase 4 (Casp 4). Actin was used as a loading control.
Shown are (A) time kinetics at 50 μM of each drug, and (B) concentration dependence after 15 hours of incubation.
Shown are (FIG. 7A) time kinetics at 50 μM of each drug, and (FIG. 7B), concentration dependence after 15 hours of incubation.
U251 glioblastoma cells were cultured for 24 hours in the presence of increasing concentrations of (A) bortezomib (BZM) or (B) DMC. Total cell lysates were analyzed by Western blot with specific antibodies to ubiquitin, GRP78, CHOP, and caspase 4. Actin was used as a loading control.
Total cell lysates were prepared by lysis of cells with radioimmunoprecipitation assay buffer (28), and protein concentrations were determined using the bicinchoninic acid protein assay reagent (Pierce, Rockford, Ill.). For Western blot analysis, 50 Ag of each sample were processed as described (29). The primary antibodies were purchased from Cell Signaling Technologies (Beverly, Mass.), Cayman Chemical (Ann Arbor, Mich.), or Santa Cruz Biotechnology, Inc. (Santa Cruz, Calif.) and used according to the manufacturer's recommendations. The secondary antibodies were coupled to horseradish peroxidase and detected by chemiluminescence using the SuperSignal West substrate from Pierce. All immunoblots were repeated at least once to confirm the results.
as §3

In the case of `CC(C)C[C@H](NC(=O)[C@H](Cc1ccccc1)NC(=O)c1cnccn1)B(O)O` [bortezomib], the IC50 [1] is reported as ~10 nM, the “reduction of colony number” value (LN229 cells) is reported as ~50% and the IC50 [2] is reported as ~10 nM. The “sensitivity of RPMI/8226 cells” value [3] was “high sensitivity”, the IC50 [4] was < 5 nM and the “accumulation of polyubiquitinated proteins” value [5] was “highly elevated levels of polyubiquitinated proteins”. The “CHOP expression in tumor tissue” value [6] was “larger fraction of CHOP-positive cells”, the “TUNEL staining of tumor tissue” value (U87 glioblastoma tumors) was “increased TUNEL staining” and the IC50 (U251 glioblastoma cells) was ~10 nM. For the same molecule, the “expression of GRP78 and CHOP” value [7] was “increased expression of GRP78 and CHOP”.
